Results taken from PubChem BioAssay (NCI).
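Test compounds were applied to cells in 96-well plates for 48 hours at 5 doses. TGI: concentration producing complete growth inhibition.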

Tests used:
Experiment in all cases: NCI-60 cell line screen, 48 h
OVCAR-5 ovarian = system: OVCAR-5 ovarian
HOP-92 NSCLC = system: HOP-92 NSCLC
SF-268 CNS = system: SF-268 CNS
NCI-H460 lung = system: NCI-H460 lung
A549 NSCLC = system: A549 NSCLC
DU-145 prostate = system: DU-145 prostate
IGROV1 ovarian = system: IGROV1 ovarian
LOX IMVI melanoma = system: LOX IMVI melanoma
MOLT-4 leukemia = system: MOLT-4 leukemia
EKVX NSCLC = system: EKVX NSCLC
MDA-N = system: MDA-N
HCT-15 colon = system: HCT-15 colon
ACHN renal = system: ACHN renal
SF-295 CNS = system: SF-295 CNS
SN12C renal = system: SN12C renal
NCI-H522 lung = system: NCI-H522 lung
MDA-MB-231 breast = system: MDA-MB-231 breast
TK-10 renal = system: TK-10 renal
KM12 colon = system: KM12 colon
SF-539 CNS = system: SF-539 CNS
RXF 393 renal = system: RXF 393 renal
U251 CNS = system: U251 CNS
M14 melanoma = system: M14 melanoma
NCI-H23 lung = system: NCI-H23 lung
CAKI-1 renal = system: CAKI-1 renal
SW-620 colon = system: SW-620 colon
UACC-257 melanoma = system: UACC-257 melanoma
HT29 colon = system: HT29 colon
CCRF-CEM leukemia = system: CCRF-CEM leukemia
MCF7 breast = system: MCF7 breast
PC-3 prostate = system: PC-3 prostate
NCI-H226 lung = system: NCI-H226 lung
T-47D breast = system: T-47D breast
OVCAR-3 ovarian = system: OVCAR-3 ovarian
786-0 renal = system: 786-0 renal
A498 renal = system: A498 renal
NCI/ADR-RES ovarian = system: NCI/ADR-RES ovarian
HL-60(TB) leukemia = system: HL-60(TB) leukemia
MALME-3M melanoma = system: MALME-3M melanoma
HOP-62 NSCLC = system: HOP-62 NSCLC
UO-31 renal = system: UO-31 renal
OVCAR-8 ovarian = system: OVCAR-8 ovarian
K-562 leukemia = system: K-562 leukemia
SK-MEL-28 melanoma = system: SK-MEL-28 melanoma
MDA-MB-435 = system: MDA-MB-435
SK-MEL-5 melanoma = system: SK-MEL-5 melanoma
SNB-75 CNS = system: SNB-75 CNS
HCT-116 colon = system: HCT-116 colon
BT-549 breast = system: BT-549 breast
SR leukemia = system: SR leukemia
COLO 205 colon = system: COLO 205 colon
UACC-62 melanoma = system: UACC-62 melanoma
RPMI-8226 leukemia = system: RPMI-8226 leukemia
SK-MEL-2 melanoma = system: SK-MEL-2 melanoma
OVCAR-4 ovarian = system: OVCAR-4 ovarian
HCC-2998 colon = system: HCC-2998 colon
SK-OV-3 ovarian = system: SK-OV-3 ovarian
SNB-19 CNS = system: SNB-19 CNS

C=C(C)[C@@H]1CC[C@]2(CO)CC[C@]3(C)[C@H](CC[C@@H]4[C@@]5(C)CC[C@H](O)C(C)(C)[C@@H]5CC[C@]43C)[C@@H]12
TGI (OVCAR-5 ovarian): > 100 µM | TGI (HOP-92 NSCLC): 41 µM | TGI (SF-268 CNS): > 100 µM | TGI (NCI-H460 lung): > 100 µM | TGI (A549 NSCLC): 26.9 µM | TGI (DU-145 prostate): > 100 µM | TGI (IGROV1 ovarian): > 100 µM | TGI (LOX IMVI melanoma): 28.4 µM | TGI (MOLT-4 leukemia): > 100 µM | TGI (EKVX NSCLC): 87.6 µM | TGI (MDA-N): > 100 µM | TGI (HCT-15 colon): > 100 µM | TGI (ACHN renal): 25.6 µM | TGI (SF-295 CNS): 27.8 µM | TGI (SN12C renal): 69.6 µM | TGI (NCI-H522 lung): 64.9 µM | TGI (MDA-MB-231 breast): > 100 µM | TGI (TK-10 renal): 38 µM | TGI (KM12 colon): > 100 µM | TGI (SF-539 CNS): 33.8 µM | TGI (RXF 393 renal): 25.9 µM | TGI (U251 CNS): 24.1 µM | TGI (M14 melanoma): > 100 µM | TGI (NCI-H23 lung): > 100 µM | TGI (CAKI-1 renal): 29 µM | TGI (SW-620 colon): 43.5 µM | TGI (UACC-257 melanoma): 54.9 µM | TGI (HT29 colon): 48.6 µM | TGI (CCRF-CEM leukemia): > 100 µM | TGI (MCF7 breast): 45.5 µM | TGI (PC-3 prostate): 84.3 µM | TGI (NCI-H226 lung): > 100 µM | TGI (T-47D breast): > 100 µM | TGI (OVCAR-3 ovarian): 66.4 µM | TGI (786-0 renal): 27.1 µM | TGI (A498 renal): 61.9 µM | TGI (NCI/ADR-RES ovarian): > 100 µM | TGI (HL-60(TB) leukemia): > 100 µM | TGI (MALME-3M melanoma): > 100 µM | TGI (HOP-62 NSCLC): 42.1 µM | TGI (UO-31 renal): 26 µM | TGI (OVCAR-8 ovarian): 60.1 µM | TGI (K-562 leukemia): > 100 µM | TGI (SK-MEL-28 melanoma): > 100 µM | TGI (MDA-MB-435): 57.1 µM | TGI (SK-MEL-5 melanoma): 57.9 µM | TGI (SNB-75 CNS): 28.9 µM | TGI (HCT-116 colon): > 100 µM | TGI (BT-549 breast): 39.8 µM | TGI (SR leukemia): > 100 µM

CC(=O)c1cc2c(s1)C(=O)c1scc(C(C)=O)c1C2=O
TGI (OVCAR-5 ovarian): 4.14 µM | TGI (HOP-92 NSCLC): 0.93 µM | TGI (SF-268 CNS): 1.5 µM | TGI (NCI-H460 lung): 1.27 µM | TGI (A549 NSCLC): 2.71 µM | TGI (DU-145 prostate): 2.86 µM | TGI (IGROV1 ovarian): 1.37 µM | TGI (LOX IMVI melanoma): 0.224 µM | TGI (EKVX NSCLC): 1.34 µM | TGI (MDA-N): 0.358 µM | TGI (HCT-15 colon): 1.07 µM | TGI (COLO 205 colon): 3.54 µM | TGI (ACHN renal): 0.828 µM | TGI (UACC-62 melanoma): 0.692 µM | TGI (SF-295 CNS): 2.15 µM | TGI (SN12C renal): 0.426 µM | TGI (NCI-H522 lung): 1.28 µM | TGI (MDA-MB-231 breast): 0.809 µM | TGI (TK-10 renal): 9.9 µM | TGI (KM12 colon): 3.39 µM | TGI (SF-539 CNS): 2.44 µM | TGI (RXF 393 renal): 1.54 µM | TGI (RPMI-8226 leukemia): 1.08 µM | TGI (U251 CNS): 0.628 µM | TGI (NCI-H23 lung): 1.72 µM | TGI (CAKI-1 renal): 2.34 µM | TGI (SK-MEL-2 melanoma): 1.3 µM | TGI (UACC-257 melanoma): 0.544 µM | TGI (HT29 colon): 4.2 µM | TGI (CCRF-CEM leukemia): 0.59 µM | TGI (OVCAR-4 ovarian): 0.454 µM | TGI (PC-3 prostate): 1.53 µM | TGI (NCI-H226 lung): 3.57 µM | TGI (HCC-2998 colon): 3.58 µM | TGI (T-47D breast): 0.838 µM | TGI (OVCAR-3 ovarian): 0.271 µM | TGI (786-0 renal): 1.9 µM | TGI (A498 renal): 4 µM | TGI (NCI/ADR-RES ovarian): 0.737 µM | TGI (MALME-3M melanoma): 1.9 µM | TGI (HOP-62 NSCLC): 1.97 µM | TGI (UO-31 renal): 1.31 µM | TGI (OVCAR-8 ovarian): 0.63 µM | TGI (SK-OV-3 ovarian): 4.86 µM | TGI (K-562 leukemia): 3.54 µM | TGI (SK-MEL-28 melanoma): 1.59 µM | TGI (MDA-MB-435): 0.496 µM | TGI (SK-MEL-5 melanoma): 1.53 µM | TGI (SNB-19 CNS): 2.42 µM | TGI (SNB-75 CNS): 2.65 µM | TGI (HCT-116 colon): 1.12 µM | TGI (BT-549 breast): 2.68 µM | TGI (SR leukemia): 0.335 µM
